Reference: US9376418B2, “Substituted pyridine spleen tyrosine kinase (SYK) inhibitors” (Merck Sharp & Dohme Corp., priority 2012, dated 2016)

Each compound was assayed against T1, recombinant human GST-SYK (Homo sapiens, UniProt P43405) (assay: Homogeneous Time-Resolved Fluorescence (HTRF) assay for the recombinant human Syk enzyme). Conditions: HTRF assay, recombinant human GST-SYK; IC50 given as class symbols; read-out: rhSYK Activity.
T1 construct: purchased Carna Biosciences 08-176
Format: biochemical
Procedure, shortened: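 HTRF read-out: Europium-anti-phosphotyrosine antibody (2 nM) plus SA-APC (70 nM) in EDTA-containing buffer quenched the reaction, and signal was read after 30 minutes. Kinase step used […], 250 nM biotinylated peptide, 25 μM ATP, 5 mM Mg, 45′ at room temperature.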

Q: For `Cc1cc(Nc2nccc(C(F)(F)F)n2)cc(-c2ccc(C(=O)NCC3CCC(=O)N3)nc2)c1` (centres unmarked) [Example 16.30, 5-(3-methyl-5-{[4-(trifluoromethyl)pyrimidin-2-yl]amino}phenyl)-N-[(5-oxopyrrolidin-2-yl)methyl]pyridine-2-carboxamide], which IC50 is on record?
A: < 100 nM

Q: How did the IC50 turn out when `Cc1cc(Nc2nccc(C(F)(F)F)n2)cc(-c2ccc(C(=O)NCC(C)(C)O)nc2)c1` [Example 16.10, N-(2-hydroxy-2-methylpropyl)-5-(3-methyl-5-{[4-(trifluoromethyl)pyrimidin-2-yl]amino}phenyl)pyridine-2-carboxamide] was run?
A: 100 to 1000 nM

Q: Which IC50 does the source give for `COc1ccnc(Nc2cc(C)cc(-c3ccc(CCC(=O)O)nc3)c2)n1` [Example 2.83, 3-(5-{3-[(4-methoxypyrimidin-2-yl)amino]-5-methylphenyl}pyridin-2-yl)propanoic acid] here?
A: < 100 nM

Q: `CCOC(=O)C1CCC(O)(c2ccc(-c3cc(C)cc(Nc4nccc(C(F)(F)F)n4)c3)cn2)CC1(C)C` (centres unmarked) [Example 9.42, ethyl 4-hydroxy-2,2-dimethyl-4-[5-(3-methyl-5-{[4-(trifluoromethyl)pyrimidin-2-yl]amino}phenyl)pyridin-2-yl]cyclohexanecarboxylate] was tested. Which IC50 did it give?
A: 100 to 1000 nM

Q: With `O=C(O)CCc1cncc(-c2cccc(Nc3nccc(C(F)(F)F)n3)c2)c1` [Example 2.79, 3-[5-(3-{[4-(trifluoromethyl)pyrimidin-2-yl]amino}phenyl)pyridin-3-yl]propanoic acid] as the compound, how does the IC50 read?
A: < 100 nM

Q: For `CCN1CCN(c2cc(-c3cc(C)cc(Nc4nccc(C(F)(F)F)n4)c3)ccn2)CC1` [Example 15.64, N-{3-[2-(4-ethylpiperazin-1-yl)pyridin-4-yl]-5-methylphenyl}-4-(trifluoromethyl)pyrimidin-2-amine], which IC50 is on record?
A: 100 to 1000 nM

Q: `CNC(=O)C1CCCN1c1ccc(-c2cc(C)cc(Nc3nccc(C(F)(F)F)n3)c2)cn1` (centres unmarked) [Example 7.65, N-methyl-1-[5-(3-methyl-5-{[4-(trifluoromethyl)pyrimidin-2-yl]amino}phenyl)pyridin-2-yl)prolinamide] was tested. Which IC50 did it give?
A: 100 to 1000 nM

Q: How did the IC50 turn out when `COc1ccnc(Nc2cc(C)cc(-c3cccc(CCC(=O)O)n3)c2)n1` [Example 2.2] was run?
A: < 100 nM

Q: How did the IC50 turn out when `Cc1cc(Nc2ncc(F)c(C)n2)cc(-c2ccc(N[C@H]3CC[C@H](C(=O)O)CC3)nc2)c1` [Example 2.120, trans-4-[(5-{3-[(5-fluoro-4-methylpyrimidin-2-yl)amino]-5-methylphenyl}pyridin-2-yl)amino]cyclohexanecarboxylic acid] was run?
A: < 100 nM

Q: How did the IC50 turn out when `Cc1cc(Nc2nccc(C)n2)cc(-c2ccc(CCC(=O)O)cn2)c1` [Example 2.34, 3-(6-{3-methyl-5-[(4-methylpyrimidin-2-yl)amino]phenyl}pyridin-3-yl)propanoic acid] was run?
A: 100 to 1000 nM

Q: With `CC(=O)NCCN(C)c1cc(-c2cc(C)cc(Nc3nccc(C(F)(F)F)n3)c2)ccn1` [Example 15.65, N-(2-{methyl[4-(3-methyl-5-{[4-(trifluoromethyl)pyrimidin-2-yl]amino}phenyl)pyridin-2-yl]amino}ethyl)acetamide] as the compound, how does the IC50 read?
A: 100 to 1000 nM

Q: `COc1ccnc(Nc2cc(C)cc(-c3ccc(C(C)(O)[C@H]4CC[C@H](C(=O)O)CC4)nc3)c2)n1` (stereo partly drawn) [Example 9.25, trans-4-[1-hydroxy-1-(5-{3-[(4-methoxypyrimidin-2-yl)amino]-5-methylphenyl}pyridin-2-yl)ethyl]cyclohexanecarboxylic acid] was tested. Which IC50 did it give?
A: < 100 nM

Q: With `CCOC(=O)C1CCCC(O)(c2cncc(-c3cc(C)cc(Nc4nccc(C(F)(F)F)n4)c3)c2)C1` (centres unmarked) [Example 9.77, ethyl 3-hydroxy-3-[5-(3-methyl-5-{[4-(trifluoromethyl)pyrimidin-2-yl]amino}phenyl)pyridin-3-yl]cyclohexanecarboxylate] as the compound, how does the IC50 read?
A: 100 to 1000 nM

Q: For `Cc1cc(Nc2nccc(C(F)(F)F)n2)cc(-c2ccc(C(O)C(C)(C)C(=O)O)nc2)c1` (centres unmarked) [Example 23.1, 3-Hydroxy-2,2-dimethyl-3-[5-(3-methyl-5-{[4-(trifluoromethyl)pyrimidin-2-yl]amino}phenyl)pyridin-2-yl]propanoic acid], which IC50 is on record?
A: < 100 nM

Q: With `COCC1CN(C(=O)c2ccc(-c3cc(C)cc(Nc4nccc(C(F)(F)F)n4)c3)cn2)CCO1` (centres unmarked) [Example 16.39, N-[3-(6-{[2-(methoxymethyl)morpholin-4-yl]carbonyl}pyridin-3-yl)-5-methylphenyl]-4-(trifluoromethyl)pyrimidin-2-amine] as the compound, how does the IC50 read?
A: < 100 nM

Q: `CNC(=O)Nc1cc(Nc2nccc(C(F)(F)F)n2)cc(-c2cccnc2)c1` [Example 6.1, 1-Methyl-3-[3-(pyridin-3-yl)-5-{[4-(trifluoromethyl)pyrimidin-2-yl]amino}phenyl]urea] was tested. Which IC50 did it give?
A: < 100 nM

Q: With `Cc1cc(Nc2nccc(C(F)(F)F)n2)cc(-c2cncc(NCCN3CCOCC3)c2)c1` [Example 15.16] as the compound, how does the IC50 read?
A: < 100 nM

Q: `CC1(C)CC(O)(c2ccc(-c3cc(F)cc(Nc4nccc(C(F)(F)F)n4)c3)cn2)CCC1C(=O)O` (single isomer, unassigned) [Example 9.4, (1S,4R or 1R,4S)-4-[5-(3-fluoro-5-{[4-(trifluoromethyl)pyrimidin-2-yl]amino}phenyl)pyridin-2-yl]-4-hydroxy-2,2-dimethylcyclohexanecarboxylic acid] was tested. Which IC50 did it give?
A: < 100 nM

Q: For `CCC(CO)Nc1ccc(-c2cc(C)cc(Nc3nccc(C(F)(F)F)n3)c2)cn1` (centres unmarked) [Example 7.23, 2-{[5-(3-methyl-5-{[4-(trifluoromethyl)pyrimidin-2-yl]amino}phenyl)pyridin-2-yl]amino}butan-1-ol], which IC50 is on record?
A: < 100 nM

Q: With `CCN1CCN(c2ccc(-c3cc(C)cc(Nc4nccc(C(F)(F)F)n4)c3)cn2)CC1` [Example 7.49, N-{3-[6-(4-ethylpiperazin-1-yl)pyridin-3-yl]-5-methylphenyl}-4-(trifluoromethyl)pyrimidin-2-amine] as the compound, how does the IC50 read?
A: 100 to 1000 nM

Q: Which IC50 does the source give for `Cc1cc(Nc2nccc(C(F)(F)F)n2)cc(-c2ccc(N3CCC(N4CC(C(=O)O)CC4=O)CC3)nc2)c1` (centres unmarked) [Example 7.151, 1-{1-[5-(3-methyl-5-{[4-(trifluoromethyl)pyrimidin-2-yl]amino}phenyl)pyridin-2-yl]piperidin-4-yl}-5-oxopyrrolidine-3-carboxylic acid] here?
A: < 100 nM

Q: Which IC50 does the source give for `Cc1cc(Nc2nccc(C(F)(F)F)n2)cc(-c2ccc(NCCCN)nc2)c1` [Example 7.26, N-[5-(3-methyl-5-{[4-(trifluoromethyl)pyrimidin-2-yl]amino}phenyl)pyridin-2-yl]propane-1,3-diamine] here?
A: < 100 nM

Q: For `Cc1cc(Nc2nccc(C(F)(F)F)n2)cc(-c2ccnc(Br)c2)c1` [Example 2.127, N-[3-(2-bromopyridin-4-yl)-5-methylphenyl]-4-(trifluoromethyl)pyrimidin-2-amine], which IC50 is on record?
A: 100 to 1000 nM

Q: How did the IC50 turn out when `O=C(O)c1cccc(-c2cccc(Nc3nccc(C(F)(F)F)n3)c2)n1` [Example 2.12, 6-(3-{[4-(trifluoromethyl)pyrimidin-2-yl]amino}phenyl)pyridine-2-carboxylic acid] was run?
A: 100 to 1000 nM

Q: For `Cc1cc(Nc2nccc(C(F)(F)F)n2)cc(-c2ccnc(C(C)(O)CO)c2)c1` (centres unmarked) [Example 9.64, 2-[4-(3-methyl-5-{[4-(trifluoromethyl)pyrimidin-2-yl]amino}phenyl)pyridine-2-yl]propane-1,2-diol], which IC50 is on record?
A: < 100 nM

Q: With `CC(=O)c1ccc(-c2cc(C)cc(Nc3nccc(C(F)(F)F)n3)c2)cn1` [Example 2.113, 1-[5-(3-methyl-5-{[4-(trifluoromethyl)pyrimidin-2-yl]amino}phenyl)pyridin-2-yl]ethanone] as the compound, how does the IC50 read?
A: 100 to 1000 nM

Q: How did the IC50 turn out when `Cc1cc(Nc2nccc(C(F)(F)F)n2)cc(-c2ccc(C3(O)CCC(C(=O)O)C(C)(C)C3)nc2)c1` (single isomer, unassigned) [Example 9.8, (1S,4R or 1R,4S)-4-hydroxy-2,2-dimethyl-4-[5-(3-methyl-5-{[4-(trifluoromethyl)pyrimidin-2-yl]amino}phenyl)pyridin-2-yl]cyclohexanecarboxylic acid] was run?
A: < 100 nM

Q: Which IC50 does the source give for `Cc1cc(Nc2nccc(C(F)(F)F)n2)cc(-c2ccc(C(=O)N3CC[S+]([O-])CC3)nc2)c1` [Example 16.49, N-(3-methyl-5-{6-[(1-oxidothiomorpholin-4-yl)carbonyl]pyridin-3-yl}phenyl)-4-(trifluoromethyl)pyrimidin-2-amine] here?
A: < 100 nM

Q: Which IC50 does the source give for `CCNC(=O)Nc1cc(Nc2nccc(C(F)(F)F)n2)cc(-c2ccc(C(=O)O)nc2)c1` [Example 6.6, 5-(3-[(ethylcarbamoyl)amino]-5-{[4-(trifluoromethyl)pyrimidin-2-yl]amino}phenyl)pyridine-2-carboxylic acid] here?
A: < 100 nM

Q: For `CCC(C)(Nc1ccc(-c2cc(C)cc(Nc3nccc(C(F)(F)F)n3)c2)cn1)C(=O)O` (centres unmarked) [Example 18.6], which IC50 is on record?
A: < 100 nM

Q: With `CCOC(=O)CCc1ccc(-c2cccc(Nc3nccc(C(F)(F)F)n3)c2)cn1` [Example 2.77, ethyl 3-[5-(3-{[4-(trifluoromethyl)pyrimidin-2-yl]amino}phenyl)pyridin-2-yl]propanoate] as the compound, how does the IC50 read?
A: 100 to 1000 nM

Q: With `Cc1cc(Nc2nccc(C(F)(F)F)n2)cc(-c2ccc(C(=O)N3CCNC(=O)C3C)nc2)c1` (centres unmarked) [Example 12.5, 3-methyl-4-{[5-(3-methyl-5-{[4-(trifluoromethyl)pyrimidin-2-yl]amino}phenyl)pyridin-2-yl]carbonyl}piperazin-2-one] as the compound, how does the IC50 read?
A: < 100 nM

Q: For `Cc1cc(Nc2nccc(C(F)(F)F)n2)cc(-c2cncc(C(C)(C)O)c2)c1` [Example 9.71, 2-[5-(3-methyl-5-{[4-(trifluoromethyl)pyrimidin-2-yl]amino}phenyl)pyridin-3-yl]propan-2-ol], which IC50 is on record?
A: < 100 nM

Q: How did the IC50 turn out when `CC[C@@H](C)[C@@H](Nc1ccc(-c2cc(C)cc(Nc3nccc(C(F)(F)F)n3)c2)cn1)C(=O)O` [Example 7.101, N-[5-(3-methyl-5-{[4-(trifluoromethyl)pyrimidin-2-yl]amino}phenyl)pyridin-2-yl]-D-isoleucine] was run?
A: < 100 nM

Q: How did the IC50 turn out when `Cc1cc(Nc2nccc(C(F)(F)F)n2)cc(-c2ccc(N3CCCC3C(N)=O)nc2)c1` (racemic) [Example 7.38, 1-[5-(3-methyl-5-{[4-(trifluoromethyl)pyrimidin-2-yl]amino}phenyl)pyridin-2-yl]prolinamide] was run?
A: < 100 nM
